The subject of assay [1] is rat spleen cells. The assay is described as follows: concanavalin A response of rat spleen cells (tritiated thymidine uptake). It counts as cell-based. Particulars: dosage level of 10 micromolar, concanavalin A 3 μg/ml, 2×10^5 cells per well. Here is the method:
The concanavalin A response of rat spleen cells was used as a primary in vitro assay to determine the activity of the compounds of the invention. Many methods for the determination of concanavalin A response are described in the literature. The method employed was similar to that described by Lacombe P. et al, FEBS 3048 191, 227-230. This method was altered insofar as Hepes was excluded, 2×10^5 cells were used per culture well, and concanavalin A employed at 3 μg/ml. 2-Mercaptoethanol was a requirement (2×10M^-5 ) and 0.1 μCi of tritiated thymidine was added 4 hours before cell harvesting.

The subject of assay [2] is cyclooxygenase. The experiment in a line: cyclooxygenase inhibition test of Harvey and Osborn. From the text:
Other members of the series inhibit 5-lipoxygenase product formation as measured in this test, and are thus indicated for the therapeutic treatment of diseases in which leukotrienes are implicated. These include immediate hypersensitivity diseases, allergic reactions of the pulmonary system, for example, in lung disorders such as extrinsic asthma and industrial asthmas and in other inflammatory disorders associated with acute or chronic infectious diseases as allergic skin diseases, ectopic and atopic eczemas, psoriasis, contact hypersensitivity and angioneurotic oedema, bronchitis, cystic fibrosis and rheumatic fever. Furthermore, owing to their inhibition of leukotriene formation, the compounds have potential activity against a wide range of inflammatory diseases, and are also indicated for use in cancer treatment.

As usually defined, the inhibition is the drop in the measured response relative to a control, in per cent. Higher therefore signals strong suppression.

For the molecule `CC(O)=C(C#N)C(=O)Nc1ccc(C(C)(C)C)cc1` [Example 1, 2-Cyano-N-[4-(1,1-dimethylethyl)phenyl]-3-hydroxybut-2-enamide], the inhibition at 10 µM in assay [1] is above 50%. The cyclooxygenase inhibiting properties result in assay [2] is on record as “little or no cyclooxygenase inhibiting properties”.

`CC(O)=C(C#N)C(=O)N(C)c1ccc(C(C)(C)C)cc1` [Example 2, 2-Cyano-N-[4-(1,1-dimethylethyl)phenyl]-3-hydroxy-N-methylbut-2-enamide]: the cyclooxygenase inhibiting properties entry in assay [2] is recorded as “little or no cyclooxygenase inhibiting properties”.

Regarding `Cc1oncc1C(=O)Nc1ccc(C(C)(C)C)cc1` [Example 3, N-[4-(1,1-Dimethylethyl)phenyl]-5-methylisoxazol-4-yl-carboxamide], the inhibition at 10 µM in assay [1] was above 50%.

Consider `CCC(C)(C)c1ccc(NC(=O)C(C#N)=C(C)O)cc1` [Example 4, 2-Cyano-N-[4-(1,1-dimethylpropyl)phenyl]-3-hydroxybut-2-enamide], for which, in assay [1], the inhibition at 10 µM was above 50%.

For the origin of these results see patent publication US4892963A, “N-phenyl amide compounds” (Lilly Industries Limited, priority 1986, dated 1990).
